# Assay results: US20230348453A1, “HALOGENATED-HETEROARYL AND OTHER HETEROCYCLIC KINASE INHIBITORS, AND USES THEREOF” (iOmx Therapeutics AG, priority 2020, published 2023)
# Like-named read-outs stand apart in the source and are kept apart here.
# Tests used:
# [1] = tested on: MC38 murine tumour cell line; assay: TNF-sensitised cell viability assay (CellTiter-Glo); conditions: Mus musculus
# [2] = in vivo
# [3] = Murine plasma protein binding
# in vitro [4] = conditions: human, microsomes
# CSF1R = CSF1R (Homo sapiens (Human), UniProt P07333); type: biochemical; conditions: Kinase Profiler
# CSF1R, sequence (P07333 20-972 limits assumed): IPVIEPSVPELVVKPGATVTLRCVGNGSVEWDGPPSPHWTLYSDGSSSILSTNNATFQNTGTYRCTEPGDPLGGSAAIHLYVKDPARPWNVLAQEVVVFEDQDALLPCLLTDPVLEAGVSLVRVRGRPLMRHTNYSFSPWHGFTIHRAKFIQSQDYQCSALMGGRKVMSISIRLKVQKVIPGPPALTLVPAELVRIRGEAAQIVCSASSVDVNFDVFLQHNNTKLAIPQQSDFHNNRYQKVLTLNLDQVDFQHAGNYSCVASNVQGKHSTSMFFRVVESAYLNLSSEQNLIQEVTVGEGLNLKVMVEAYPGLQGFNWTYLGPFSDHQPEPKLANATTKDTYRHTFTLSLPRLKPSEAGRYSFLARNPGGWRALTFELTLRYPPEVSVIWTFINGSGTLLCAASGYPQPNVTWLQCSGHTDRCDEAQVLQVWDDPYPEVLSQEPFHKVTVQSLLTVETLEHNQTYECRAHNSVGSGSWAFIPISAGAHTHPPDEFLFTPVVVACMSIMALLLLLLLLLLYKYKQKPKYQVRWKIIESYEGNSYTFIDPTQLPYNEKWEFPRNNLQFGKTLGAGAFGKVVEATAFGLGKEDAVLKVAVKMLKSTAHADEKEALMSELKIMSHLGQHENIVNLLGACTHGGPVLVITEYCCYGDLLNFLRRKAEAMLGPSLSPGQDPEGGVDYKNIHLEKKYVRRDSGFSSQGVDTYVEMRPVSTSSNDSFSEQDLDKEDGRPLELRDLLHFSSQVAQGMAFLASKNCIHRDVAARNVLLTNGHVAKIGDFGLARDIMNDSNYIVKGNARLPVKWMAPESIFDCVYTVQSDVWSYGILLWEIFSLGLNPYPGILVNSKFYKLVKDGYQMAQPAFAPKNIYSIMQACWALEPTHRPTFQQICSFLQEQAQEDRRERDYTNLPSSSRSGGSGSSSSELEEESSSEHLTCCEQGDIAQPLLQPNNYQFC
# HCT116 cells = assay: TNF-sensitised cell viability assay (CellTiter-Glo); conditions: Homo sapiens, HCT-116, read-out: HCT116 IC50 (at 10 ng/ml rHuTNF)
# in vitro [5] = conditions: mouse, microsomes
# [6] = Plasma stability in human plasma; type: in vitro ADME; conditions: read-out: plasma stability T1/2
# [7] = tested on: NFKB activity in PANC-1 cells; assay: TNF-induced NFKB activity (NFKB-dependent luciferase reporter); conditions: 10 ng/ml rHuTNF
# [8] = Plasma stability in mouse plasma; type: in vitro ADME; conditions: read-out: plasma stability T1/2
# [9] = Human hepatocyte stability; type: in vitro ADME; conditions: human, hepatocytes
# in vitro [10] = conditions: dog, MDCK, MDCK-wild type cells
# in vivo = conditions: male, CD1, mouse, po, 30 mg/kg
# KASUMI-1 cell line [11] = assay: Growth inhibition (GI50) of AML cell lines; type: cell-based
# KASUMI-1 cell line [12] = assay: Cell killing of pMEF2C-positive KASUMI-1 cell line; type: cell-based
# [13] = microsomes
# MDR1 (P-gp) = MDR1 (P-gp) (Homo sapiens (Human), UniProt P08183); assay: in vitro; conditions: dog, MDCK-MDR1, MDCK-MDR1 cells
# [14] = tested on: HDAC4 phosphorylation in PANC-1 cells; assay: HDAC4 phosphorylation (Meso Scale Discovery assay); conditions: 10 ng/mL rHuTNF
# [15] = Metabolite profile in hepatocytes / in vivo
# Description: Metabolites are identified using high-resolution mass spectrometry.
# MV4-11 cell line = assay: Growth inhibition (GI50) of AML cell lines; type: cell-based; conditions: Homo sapiens, MV4-11, read-out: GI50 against MV4-11 cell line
# panel of AML cell lines = assay: Lysis of a panel of AML cell lines; type: cell-based; conditions: cell lines that have phosphorylated MEF2C protein
# [16] = tested on: MC38 colorectal carcinoma tumours; assay: MC38 syngeneic mouse tumour model (Example 8.1); conditions: MC38; 100 mg/Kg, BID po
# [17] = Mouse hepatocyte stability; type: in vitro ADME; conditions: hepatocytes
# HEL cell line [18] = assay: Growth inhibition (GI50) of AML cell lines; type: cell-based; conditions: Homo sapiens, pMEF2C-negative, read-out: GI50 against HEL cell line
# HCK = HCK (Homo sapiens (Human), UniProt P08631); type: biochemical; conditions: Kinase Profiler
# HEL cell line [19] = assay: Cell killing of pMEF2C-negative HEL cell line; type: cell-based
# [20] = Human plasma-protein binding
# [21] = microsomes; remark: listed apart in the source
# [22] = tested on: NFKB activity in MC38 cells; assay: TNF-induced NFKB activity (NFKB-dependent luciferase reporter); conditions: 10 ng/ml rMuTNF
# K562 human CML tumours = conditions: PO once a day for 10 days, 5-days-on and 2-days off; cited from earlier work
# [23] = in vivo; cited from earlier work
# SIK3 = SIK3 (Homo sapiens (Human), UniProt Q9Y2K2); conditions: read-out: SIK3 IC50
# SIK2 = SIK2 (Homo sapiens (Human), UniProt Q9H0K1); conditions: read-out: SIK2 IC50
# SIK1 = SIK1 (Homo sapiens (Human), UniProt P57059); conditions: read-out: SIK1 IC50
# ABL1 wt = ABL1 wt (Homo sapiens (Human), UniProt P00519); type: biochemical
# ABL1 wt, sequence (P00519 118-535 limits assumed): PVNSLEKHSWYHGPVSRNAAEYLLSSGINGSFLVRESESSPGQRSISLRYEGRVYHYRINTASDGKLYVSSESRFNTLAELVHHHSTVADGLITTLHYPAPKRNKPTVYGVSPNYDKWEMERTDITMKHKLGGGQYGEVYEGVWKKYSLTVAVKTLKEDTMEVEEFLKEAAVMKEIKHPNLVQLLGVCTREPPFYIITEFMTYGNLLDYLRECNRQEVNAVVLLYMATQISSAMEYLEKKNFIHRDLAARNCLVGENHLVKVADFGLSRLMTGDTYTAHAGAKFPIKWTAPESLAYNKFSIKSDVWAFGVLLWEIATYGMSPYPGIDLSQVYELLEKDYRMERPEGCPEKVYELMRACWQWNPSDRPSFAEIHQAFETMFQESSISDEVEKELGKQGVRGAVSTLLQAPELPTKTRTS
# SRC (GST-HIS-tag) = SRC (GST-HIS-tag) (Homo sapiens (Human), UniProt P12931); type: biochemical
# AML = conditions: administered intraperitoneally; cited from earlier work
# [24] = cited from earlier work
# KU812 tumours = conditions: 50 mg/kg/day for 5 days; cited from earlier work
# hERG potassium channel = hERG potassium channel (Homo sapiens (Human), UniProt Q12809); conditions: cited from earlier work
# RET [25] = molecular target: T1, RET (Homo sapiens (Human), UniProt P07949)
# T1 sequence (P07949 29-1114 limits assumed): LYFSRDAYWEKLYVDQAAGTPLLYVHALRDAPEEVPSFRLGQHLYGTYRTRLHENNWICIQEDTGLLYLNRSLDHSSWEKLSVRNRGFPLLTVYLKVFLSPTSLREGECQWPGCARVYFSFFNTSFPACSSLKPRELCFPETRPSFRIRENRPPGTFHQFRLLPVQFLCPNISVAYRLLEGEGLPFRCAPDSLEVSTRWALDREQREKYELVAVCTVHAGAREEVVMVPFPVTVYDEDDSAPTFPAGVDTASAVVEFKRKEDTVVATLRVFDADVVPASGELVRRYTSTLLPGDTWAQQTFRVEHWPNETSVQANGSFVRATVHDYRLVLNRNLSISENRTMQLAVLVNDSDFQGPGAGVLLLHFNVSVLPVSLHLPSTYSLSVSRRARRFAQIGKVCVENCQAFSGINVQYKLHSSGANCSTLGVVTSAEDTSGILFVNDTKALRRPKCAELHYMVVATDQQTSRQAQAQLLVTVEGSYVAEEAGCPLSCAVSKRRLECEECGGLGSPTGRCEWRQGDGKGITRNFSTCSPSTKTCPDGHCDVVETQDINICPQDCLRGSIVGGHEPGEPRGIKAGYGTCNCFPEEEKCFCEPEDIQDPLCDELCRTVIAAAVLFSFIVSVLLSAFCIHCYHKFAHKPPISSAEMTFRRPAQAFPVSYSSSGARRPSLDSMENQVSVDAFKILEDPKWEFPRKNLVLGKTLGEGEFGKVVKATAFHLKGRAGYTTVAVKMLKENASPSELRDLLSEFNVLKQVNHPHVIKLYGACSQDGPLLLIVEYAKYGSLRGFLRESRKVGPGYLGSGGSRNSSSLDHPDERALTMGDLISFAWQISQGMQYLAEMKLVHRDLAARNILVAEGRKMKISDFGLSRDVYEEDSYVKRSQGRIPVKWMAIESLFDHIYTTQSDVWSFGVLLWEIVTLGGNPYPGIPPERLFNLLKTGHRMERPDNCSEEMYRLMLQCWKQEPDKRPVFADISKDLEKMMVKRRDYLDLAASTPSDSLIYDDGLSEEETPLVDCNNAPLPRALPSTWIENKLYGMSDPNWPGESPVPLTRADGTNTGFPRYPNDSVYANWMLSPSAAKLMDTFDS
# [26] = Full pharmacokinetic study in mice; conditions: mouse, in vivo
# RET [27] = molecular target: T1, RET; assay: biochemical; conditions: read-out: RET residual activity (%) at 1 μM, 1 μM
# [28] = human, in vivo; cited from earlier work
# [29] = Screening PK in mice after 30 mg/kg po; conditions: mouse, in vivo
# K562 CML cells = conditions: 10 mg/kg/day; cited from earlier work
compound,measurement,setting,value
"Cc1nc(Nc2ncc(C(=O)Nc3c(C)csc3Cl)s2)cc(N2CCN(CCO)CC2)n1 [Compound C7, N-(2-chloro-4-methylthiophen-3-yl)-2-((6-(4-(2-hydroxyethyl)piperazin-1-yl)-2-methylpyrimidin-4-yl)amino)thiazole-5-carboxamide]",IC50,"[1]; MC-38, read-out: MC38 IC50 (at 100 ng/mL rMuTNF)",< 200 nM
same,EC50,"[1]; MC-38, read-out: mean EC50 of sensitising MC38 tumour cells to TNF-mediated killing",~150 nM
same,% AUCextrap,"[2]; male, CD1, mouse, iv, 1 mg/kg",5.81%
same,% AUCextrap,"[2]; male, CD1, mouse, po, 30 mg/kg",0.45%
same,"% AUCextrap, Free","[2]; male, CD1, mouse, po, 30 mg/kg",11.24%
same,"% AUCextrap, Total","[2]; male, CD1, mouse, po, 30 mg/kg",11.24%
same,"AUCinf (nM*h), Free","[2]; male, CD1, mouse, po, 30 mg/kg",58.79 nM·h
same,"AUClast (nM*h), Free","[2]; male, CD1, mouse, po, 30 mg/kg",52.07 nM·h
same,"Rsq, Free","[2]; mouse, po, 30 mg/kg",0.99
same,"Rsq, Total","[2]; mouse, po, 30 mg/kg",0.99
same,"Murine plasma protein binding, Percentage unbound (%)",[3]; Table 5A,5%
same,"Murine plasma protein binding, Percentage unbound (%)",[3]; Table 5.1A,3%
same,recovery at 4 h,[3]; mouse,87%
same,half-life,in vitro [4],10 min
same,microsomal CLint,in vitro [4],142 µL/min/mg
same,CSF1R residual activity,CSF1R,less than 1%
same,IC50,HCT116 cells,< 100 nM
same,half-life,in vitro [5],13 min
same,microsomal CLint,in vitro [5],110 µL/min/mg
same,half-life,[6],> 150 min
same,Inhibition of NFKB activity (PANC-1),[7]; PANC-1 reporter cells,+
same,Inhibition of NFKB activity,[7]; PANC-1 reporter cells (Table 9C),+
same,half-life,[8],> 150 min
same,half-life,"[9]; read-out: Human hepatocyte stability, Half-life",54 min
same,microsomal CLint,"[9]; read-out: Human hepatocyte stability, Intrinsic clearance",26 µL/min/mg
same,half-life,[9]; read-out: half-life in the presence of human hepatocytes (converted),~60 min
same,Papp,in vitro [10]; Mean Papp A > B (10^−6 cm/s),9 ×10⁻⁶ cm/s
same,AUC(0-inf),in vivo,1.31 µM·h
same,AUC(0-t),in vivo,1.16 µM·h
same,Cmax,in vivo,474 ng/mL
same,MRT last,in vivo,165 min
same,half-life,in vivo,85.2 min
same,GI50,"KASUMI-1 cell line [11]; Homo sapiens, Kasumi 1, read-out: GI50 against KASUMI-1 cell line, pMEF2C-positive",~2 nM
same,GI50,"KASUMI-1 cell line [11]; read-out: GI50 against KASUMI-1 cell line, pMEF2C-positive",1.6 nM
same,cell killing,KASUMI-1 cell line [12],highly potent cell killing
same,"Mouse liver microsomal stability, % Remaining at 40 min (%)",[13],10%
same,Papp,MDR1 (P-gp); Mean Papp A > B (10^−6 cm/s),2 ×10⁻⁶ cm/s
same,Inhibition of HDAC4 phosphorylation,[14]; 3 h,+
same,Inhibition of HDAC4 phosphorylation,[14]; 3 h (Table 9C),+
same,quinone-imine reactive metabolite,[15],not observed
same,GI50,MV4-11 cell line,480 nM
same,lysis of AML cell lines,panel of AML cell lines,strong lysis
same,Body weight increase (%),[16],1.0%
same,Non-treatment related death,[16],3/16
same,Tumour growth inhibition (%),[16],78%
same,half-life,[17],50 min
same,microsomal CLint,"[17]; read-out: Mouse hepatocyte stability, Intrinsic clearance",28 µL/min/mg
same,GI50,HEL cell line [18],~5000 nM
same,HCK residual activity,HCK,less than 1%
same,tolerable dose,"BID by gavage, female C57BL/6, seven days",up to 100 mg/kg
same,HRD in vivo @BID,"highest recommended dose, BID",100 mg/kg
same,HRD in vivo @QD,"highest recommended dose, QD",100 mg/kg
same,cell killing,HEL cell line [19],low cell killing
same,"Human plasma-protein binding, Percentage unbound (%)",[20]; Table 5A,<1%
same,"Human plasma-protein binding, Percentage unbound (%)",[20]; Table 5.1A,2%
same,recovery at 4 h,[20]; human,75%
same,"Human liver microsomal stability, Intrinsic clearance",[21],2.53e+08 µL/min/mg
same,"Human liver microsomal stability, % Remaining at 40 min (%)",[21],1%
same,Inhibition of NFKB activity (MC38),[22],+
Cc1ccc(NC(=O)c2ccc(CN3CCN(C)CC3)cc2)cc1Nc1nccc(-c2cccnc2)n1 [imatinib],outcome in mice bearing K562 human CML tumours,K562 human CML tumours,failed to produce a comparative response
Cc1cn(-c2cc(NC(=O)c3ccc(C)c(Nc4nccc(-c5cccnc5)n4)c3)cc(C(F)(F)F)c2)cn1 [nilotinib],terminal / elimination half-life,[23],approximately 17 hours
Cc1nc(Nc2ncc(C(=O)Nc3c(C)noc3C)s2)cc(N2CCN(CCO)CC2)n1 [Compound C9],IC50,SIK3,800 nM
same,"Murine plasma protein binding, Percentage unbound (%)",[3]; Table 5A,44%
same,"Mouse liver microsomal stability, Intrinsic clearance (L/min/mg)",[13],<14
same,"Mouse liver microsomal stability, % Remaining at 40 min (%)",[13],83%
same,IC50,SIK2,232 nM
same,IC50,SIK1,169 nM
same,"Human plasma-protein binding, Percentage unbound (%)",[20]; Table 5A,6%
same,IC50,ABL1 wt,27.4 nM
same,"Human liver microsomal stability, Intrinsic clearance",[21],<1.4e+07 µL/min/mg
same,"Human liver microsomal stability, % Remaining at 40 min (%)",[21],89%
same,IC50,SRC (GST-HIS-tag),6.44 nM
COc1ccc(N2C(=O)N(c3c(C)cccc3Cl)Cc3cnc(Nc4ccc(C5CCN(C)CC5)cc4OC)nc32)nc1 [YKL-05-099],AML progression,AML,supressed AML progression in-vivo
"Cc1nc(Nc2ncc(C(=O)Nc3c(C)cccc3Cl)s2)cc(N2CCN(CCO)CC2)n1 [Compound A8, N-(2-chloro-6-methylphenyl)-2-((6-(4-(2-hydroxyethyl)piperazin-1-yl)-2-methylpyrimidin-4-yl)amino)thiazole-5-carboxamide]","severe gastrointestinal haemorrhage, including fatalities",[24]; all clinical studies,4 % of patients
same,"cardiomyopathy, heart failure congestive, diastolic dysfunction, fatal myocardial infarction, and left ventricular dysfunction","[24]; human, in vivo",1.6 % of patients
same,outcome in mice bearing large KU812 tumours,KU812 tumours,curative
same,inhibition of hERG currents at 3 uM,hERG potassium channel,about 6%
same,inhibition of hERG currents at 10 uM,hERG potassium channel,~36%
same,Papp,in vitro [10]; Mean Papp A > B (10^−6 cm/s),21 ×10⁻⁶ cm/s
same,Papp,in vitro [10]; Mean Papp B > B (10^−6 cm/s),49 ×10⁻⁶ cm/s
same,RET residual activity (%) at 1 μM,RET [25],39%
same,"Cmax (ng/ml), Total",[26],550 ng/mL
same,remaining activity at 1 µM,RET [27],< 40%
same,"patients with cardiomyopathy, heart failure congestive, diastolic dysfunction, fatal myocardial infarction, and left ventricular dysfunction",[28],1.6%
same,Papp,MDR1 (P-gp),105 ×10⁻⁶ cm/s
same,Papp,MDR1 (P-gp); Mean Papp A > B (10^−6 cm/s),2.4 ×10⁻⁶ cm/s
same,HCK residual activity,HCK,less than 1%
same,Cmax after 2 h,[29],550 ng/mL
same,survival of mice inoculated intracranially with K562 CML cells,K562 CML cells,increased survival
